# In patent US8067435B2, “Nitrogen-containing heterocyclic compounds, their preparation and their use as antibacterial drugs” (AstraZeneca AB, priority 2008, dated 2011):
# Test system: Pseudomonas aeruginosa (1771 Strain of the wild type)
# Experiment: Activity in vitro, method of dilutions in a liquid medium (MIC)
# Assay type: cell-based
# Settings: Pseudomonas aeruginosa 1771 wild type; liquid medium dilution; 24 hrs incubation at 37° C.
# Experimental: Activity in vitro, method of dilutions in a liquid medium: A series of tubes is prepared in which the same amount of sterile nutritive medium is distributed, increasing amounts of the product to be studied are distributed in each tube, and each tube is then sown with a bacterial strain. After incubation for 24 hrs in the oven at 37° C., inhibition of growth is appreciated by trans-illumination, which allows determination of the minimum inhibitory concentrations (MICs) expressed in μg/ml.
# Thus tests are carried out with the products of Examples 1 to 8 in comparison with products of Examples 7, 9, 11 and 45 of application WO 04/052891. […] The activity difference on Pseudomonas aeruginosa between the products of the invention and the closest products from the prior art is located according to the products in a range from 16 to more than 500.
# Activity on Pseudomonas aeruginosa (1771 Strain of the wild type)
row,SMILES,"MIC (μg/mL) 24 h (P, aerug, 1771) [µg/mL]"
1,"NCCn1cc2c(n1)[C@@H](CN)N1C[C@H]2N(OS(=O)(=O)O)C1=O.O=C([O-])C(F)(F)F.[Na+] (relative stereo) [Ex 5, Sodium trifluoroacetate salt of trans 8-(aminomethyl)-2-(2-amino-ethyl)-4,8-dihydro-5-(sulfooxy)-4,7-methano-7H-pyrazolo[3,4-e][1,3]diazepin-6(5H)-one]",0.25
2,"NC[C@@H]1c2nn(C(N)=O)cc2[C@H]2CN1C(=O)N2OS(=O)(=O)O.O=C([O-])C(F)(F)F.[Na+] (relative stereo) [Ex 1, Sodium trifluoroacetate salt of trans 8-(aminomethyl)-2-carbamoyle-4,8-dihydro-5-(sulfooxy)-4,7-methano-7H-pyrazolo[3,4-e][1,3]diazepin-6(5H)-one]",0.25
3,"CN(C)C(=O)n1cc2c(n1)[C@@H](CN)N1C[C@H]2N(OS(=O)(=O)O)C1=O.O=C([O-])C(F)(F)F.[Na+] (relative stereo) [Ex 2, Sodium trifluoroacetate salt of trans 8-(aminomethyl)-2-dimethylcarbamoyle-4,8-dihydro-5-(sulfooxy)-4,7-methano-7H-pyrazolo[3,4-e][1,3]diazepin-6(5H)-one]",2
4,"NC[C@@H]1c2nn(CC(N)=O)cc2[C@H]2CN1C(=O)N2OS(=O)(=O)O.O=C([O-])C(F)(F)F.[Na+] (relative stereo) [Ex 8, Sodium trifluoroacetate salt of trans-8-(aminomethyl)-5,6-dihydro-6-oxo-5-(sulfooxy)-4H-4,7-methanopyrazolo[3,4-e][1,3]diazepin-2(8H)-acetamide]",0.5
5,"CNC(=O)n1cc2c(n1)[C@@H](CN)N1C[C@H]2N(OS(=O)(=O)O)C1=O.O=C([O-])C(F)(F)F.[Na+] (relative stereo) [Ex 3, Sodium trifluoroacetate salt of trans 8-(aminomethyl)-2-methylcarbamoyl-4,8-dihydro-5-(sulfooxy)-4,7-methano-7H-pyrazolo[3,4-e][1,3]diazepin-6(5H)-one]",2
6,"NC[C@@H]1c2nn(CC(=O)O)cc2[C@H]2CN1C(=O)N2OS(=O)(=O)O.O=C([O-])C(F)(F)F.[Na+] (relative stereo) [Ex 7, Sodium trifluoroacetate salt of trans-8-(aminomethyl)-5,6-dihydro-6-oxo-5-(sulfooxy)-4H-4,7-methanopyrazolo[3,4-e][1,3]diazepin-2(8H)-acetic acid]",4
7,"NC[C@@H]1c2nn(-c3ccccn3)cc2[C@H]2CN1C(=O)N2OS(=O)(=O)O.O=C([O-])C(F)(F)F.[Na+] (relative stereo) [Ex 6, Sodium trifluoroacetate salt of trans 8-(aminomethyl)-2-(2-pyridinyl)-4,8-dihydro-5-(sulfooxy)-4,7-methano-7H-pyrazolo[3,4-e][1,3]diazepin-6(5H)-one]",8
8,"NCCn1ncc2c1[C@@H](CN)N1C[C@H]2N(OS(=O)(=O)O)C1=O.O=C([O-])C(F)(F)F.[Na+] (relative stereo) [Ex 4, Sodium trifluoroacetate salt of trans 8-(aminomethyl)-1-(2-amino-ethyl)-4,8-dihydro-5-(sulfooxy)-4,7-methano-7H-pyrazolo[3,4-e][1,3]diazepin-6(5H)-one]",0.25

# Same assay, conditions: Pseudomonas aeruginosa 1771 wild type; liquid medium dilution; 24 hrs incubation at 37° C.; read-out: MIC (μg/mL) 24 h (P, aerug, 1771)
row,MIC [µg/mL],SMILES
1,1,"C[C@@H](O)[C@H]1C(=O)N2C(C(=O)O)=C(SCCN=CN)C[C@H]12 [IMP, Imipenem, reference compound]"
2,1,"CC(C)(O/N=C(\C(=O)N[C@@H]1C(=O)N2C(C(=O)[O-])=C(C[n+]3ccccc3)CS[C@H]12)c1csc(N)n1)C(=O)O [CAZ, Ceftazidime, reference compound]"
